From publication PMC11510563 (Pharmaceutics, 2024)

Molecular target: T1, oxytocin receptors (Homo sapiens, UniProt P30559)
T1 construct: endogenous in cells; host or cells: Hs 578T breast cancer cells
T1 sequence (P30559 1-389): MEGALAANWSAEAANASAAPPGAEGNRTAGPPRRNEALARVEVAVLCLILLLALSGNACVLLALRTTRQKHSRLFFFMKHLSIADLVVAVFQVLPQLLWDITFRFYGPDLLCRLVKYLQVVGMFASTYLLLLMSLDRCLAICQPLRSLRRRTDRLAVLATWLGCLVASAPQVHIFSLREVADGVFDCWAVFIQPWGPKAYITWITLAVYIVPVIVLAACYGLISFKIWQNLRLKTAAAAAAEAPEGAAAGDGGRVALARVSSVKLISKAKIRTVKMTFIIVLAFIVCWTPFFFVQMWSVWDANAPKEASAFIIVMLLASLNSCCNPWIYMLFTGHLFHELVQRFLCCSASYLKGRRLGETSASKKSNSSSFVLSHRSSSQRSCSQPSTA
Test: calcium fluorimetry reporter assay in Hs 578T cells
Assay type: cell-based
Details: Fluo-4, L-368,899 0.1-10 μM, SR 49059 0.1 μM, tolvaptan 1 nM
Experimental: Twenty-four hours prior to use, Hs 578T cells were seeded in black 96-well plates (80,000 cells in 100 μL of supplemented DMEM per well). On the test day, changes in intracellular calcium ([Ca^2+]i) were measured using a Fluo-4 no wash calcium assay kit (F36206; Thermo Fisher Scientific). Briefly, medium was aspirated and replaced with 100 μL of 1× dye loading solution (Fluo-4 NW mix in 1× HBSS) containing 20 mM 4-(2-hydroxyethyl)-1piperazineethanesulfonic acid (HEPES, Sigma-Aldrich) and 2.5 mM probenecid, which prevents the active transport of Fluo-4 out of the cells. Cells were incubated for 40 min, and then mean fluorescence across each well was measured every 1.6 s for 90 s using a Flexstation 3 (Molecular Devices, Wokingham, UK) with excitation at 485 nm and emission at 525 nm.

Row | SMILES | sensitivity of oxytocin-induced [Ca^2+]i increases to the antagonist
1 | Cc1ccccc1N1CCN(S(=O)(=O)C[C@]23CC[C@H](C[C@@H]2NC(=O)[C@@H](N)CCS(C)(=O)=O)C3(C)C)CC1 [L-368,899] | sensitive to blockade
2 | COc1ccc(S(=O)(=O)N2c3ccc(Cl)cc3[C@](O)(c3ccccc3Cl)[C@@H]2C(=O)N2CCC[C@H]2C(N)=O)cc1OC [SR 49059] | not sensitive
3 | Cc1ccccc1C(=O)Nc1ccc(C(=O)N2CCCC(O)c3cc(Cl)ccc32)c(C)c1 (stereo not drawn) [tolvaptan] | not sensitive
